The test system of one series is S. cerevisiae. In words: Yeast replicative lifespan. Format: cell-based. The protocol:
Average lifespan for wild type, 22.9 generations, quercetin, 23.4; piceatannol. […]
All yeast strains were grown at 30° C. in complete yeast extract/bactopeptone, 2.0% (w/v) glucose (YPD) medium except where stated otherwise. Calorie restriction was induced in 0.5% glucose. Synthetic complete (SC) medium consisted of 1.67% yeast nitrogen base, 2% glucose, 40 mg/litre each of auxotrophic markers. SIR2 was integrated in extra copy and disrupted as described^5. Other strains are described elsewhere^26. For cellular deacetylation assays, HeLa S3 cells were used. U20S osteosarcoma and human embryonic kidney (HEK 293) cells were cultured adherently in Dulbecco's Modified Eagle's Medium (DMEM) containing 10% fetal calf serum (FCS) with 1.0% glutamine and 1.0% penecillin/streptomycin. HEK 293 overexpressing dominant negative SIRT1 H363Y was a gift of R. Frye (U. Pittsburgh).
Lifespan measurements were performed using PSY316AT MATα as previously described^35. All compounds for lifespan analyses were dissolved in 95% ethanol and plates were dried and used within 24 hours. Prior to lifespan analysis, cells were pre-incubated on their respective media for at least 15 hours. Following transfer to a new plate, cells were equilibrated on the medium for a minimum of 4 hours prior to micro-manipulating them. At least 30 cells were examined per experiment and each experiment was performed at least twice. Statistical significance of lifespan differences was determined using the Wilcoxon rank sum test. Differences are stated to be significant when the confidence is higher than 95%.

A short description of series [1]: Solution stability from SIRT1 fold-stimulation of aged stock solutions. Format: physicochemical. The settings on record: ethanol stock 2.5 mM, room temperature, nitrogen atmosphere. The source says: The fold-stimulation (ratio to control) obtained with a compound diluted from an aged stock solution was compared to an identical dilution from a stock solution freshly prepared from the solid compound. “t1/2” is defined as the time required for the SIRT1 fold-stimulation of the compound from the aged solution to decay to one-half of that obtained from a freshly prepared solution. […] Stocks were aged by storage at room temperature, in glass vials, under a nitrogen atmosphere.

The next series concerns the target T1, recombinant human SIRT1 (Homo sapiens, UniProt Q96EB6).
T1 sequence (Q96EB6 1-747): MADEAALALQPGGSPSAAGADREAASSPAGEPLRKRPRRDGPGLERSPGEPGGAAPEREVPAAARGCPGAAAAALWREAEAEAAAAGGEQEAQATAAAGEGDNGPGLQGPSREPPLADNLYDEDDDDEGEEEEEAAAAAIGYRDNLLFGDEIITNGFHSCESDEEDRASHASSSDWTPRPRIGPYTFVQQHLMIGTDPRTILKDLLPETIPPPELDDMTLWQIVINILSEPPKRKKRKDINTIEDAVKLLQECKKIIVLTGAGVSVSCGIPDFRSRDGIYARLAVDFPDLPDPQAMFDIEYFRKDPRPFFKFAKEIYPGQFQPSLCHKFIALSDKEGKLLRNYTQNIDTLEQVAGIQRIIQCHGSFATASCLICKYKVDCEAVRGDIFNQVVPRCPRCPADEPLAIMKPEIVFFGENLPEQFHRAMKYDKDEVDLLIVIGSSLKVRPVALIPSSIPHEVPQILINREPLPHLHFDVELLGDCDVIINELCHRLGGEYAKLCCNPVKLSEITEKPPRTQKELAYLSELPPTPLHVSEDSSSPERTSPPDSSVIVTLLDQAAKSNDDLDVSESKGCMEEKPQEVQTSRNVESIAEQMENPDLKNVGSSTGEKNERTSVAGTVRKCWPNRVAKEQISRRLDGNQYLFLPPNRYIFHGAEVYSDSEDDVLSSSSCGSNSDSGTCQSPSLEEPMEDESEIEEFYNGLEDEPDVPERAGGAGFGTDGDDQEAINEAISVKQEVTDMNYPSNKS
The series can be described thus: SIRT1 fluorescent deacetylation assay (p53-382 acetylated peptide). The settings on record: 25 μM NAD+, 25 μM p53-382 acetylated peptide, compounds at 100 μM. Format: biochemical. The text has this: Lines represent non-linear least-squares fits to the Michaelis-Menten equation. […] Lines represent non-linear least-squares fits to the Michaelis-Menten equation. […] Error bars are standard errors of the mean.
To identify compounds that modulate SIRT1 activity, a number of small molecule libraries were screened using a fluorescent deacetylation assay in 96-well plates^26. The substrate used in the assay was a fluorogenic peptide based on the sequence encompassing the p53-K382 acetylation site, a known target of SIRT1 in vivo^20,21,27. […] The small molecule libraries included analogues of nicotinamide, ε-acetyl lysine, NAD^+, nucleotides, nucleotide analogues and purinergic ligands.
His6-tagged recombinant SIRT1 and GST-tagged recombinant Sir2 were prepared as previously described^26. From 0.1 to 1 μg of SIRT1 and 1.5 μg of Sir2 were used per deacetylation assay (in 50 μl total reaction) as previously described^26.
Themed compound libraries (BIOMOL) were used for primary and secondary screening. Most polyphenol compounds were dissolved at 10 mM in dimethylsulfoxide (DMSO) on the day of the assay. For water soluble compounds and negative controls, 1% v/v DMSO was added to the assay. […] Unless otherwise indicated all initial rate measurements were means of three or more replicates, obtained with single incubation times, at which point 5% or less of the substrate initially present had been deacetylated. Calculation of net fluorescence increases included subtraction of a blank value, which in the case of Sir2 was obtained by omitting the enzyme from the reaction and in the case of SIRT1 by adding an inhibitor (200 μM suramin or 1 mM nicotinamide) to the reaction prior to the acetylated substrate. […] All error bars represent the standard error of the mean.

The test system of a further series is C. elegans. The series can be described thus: C. elegans lifespan. In kind it is in vivo. The settings on record: N2 worms, E. coli as food; untreated 100%. The protocol:
Thus, the presence of resveratrol in the growth media of C. elegans extends their lifespan.
Bristol N2 (Caenorhabditis Genetics Center) was used as the wild-type strain. The sir-2.1 mutant strain was generated by backcrossing VC199 (sir-2.1(ok434)) to N2 four times. Cultures were grown on standard NGM media and maintained on E. coli strain OP50. For the lifespan assays, synchronized animals were transferred to treatment plates as young adults (2 d after hatching, day 0 of assay), and were transferred to fresh treatment plates every 2 days for the first 6 to 8 days of the assay. […] For some lifespan trials, heat-killed OP50 were used as a food source. OP50 cultures were heated to 65° C. for 30 minutes, then pelleted and resuspended in 1/10 volume in S Basal supplemented with 10 mM MgSO4. In all assays, worms were monitored daily for mortality by gently probing with a platinum pick. Assays were performed at 24° C. To assay worm feeding rates, worms at the indicated stages were placed on treatment plates (no FUdR) for 4-5 hours, then videoed for 1 minute using a Pixelink PL-662 camera. The frame rate was slowed and the pumping rate of the pharynx was counted. To assay fecundity, gravid hermaphrodites (5 per plate, raised from synchronized L1s on normal or treatment plates) were allowed to lay eggs on their respective media for 5 hours, and the total number of eggs was counted.

The subject of the next series is HeLa S3 cells. In words: Cellular deacetylase assay (FdL, TSA-insensitive signal). Format: cell-based, human. Conditions: 500 μM compound, 200 μM FdL, 1 μM TSA, 1 hour. The protocol:
FdL (200 μM) is added to growth media and cells incubated for 1-3 hours to allow FdL to enter the cells and the lysine-deacetylated product (deAc-FdL) to accumulate intracellularly. Cells are lysed with detergent in the presence of 1 μM TSA, 1 mM nicotinamide. Addition of the non-cell-permeable Developer (BIOMOL) releases a fluorophor, specifically from deAc-FdL. b, SIRT1 activating polyphenols can stimulate TSA-insensitive, FdL deacetylation by HeLa S3 cells. Cells were grown adherently in DMEM/10% FCS and treated for 1 hour with 200 μM FdL, 1 μM TSA and either vehicle (0.5% final DMSO, Control) or 500 μM of the indicated compound. Intracellular accumulation of deAc-FdL was then determined as described briefly in a. […] Lysates were prepared and analyzed as above. […]
Themed compound libraries (BIOMOL) were used for primary and secondary screening. […] In vitro fluorescence assay results were read in white ½-volume 96-well microplates (Coming Costar 3693) with a CytoFluor™. II fluorescence plate reader (PerSeptive Biosystems, Ex. 360 nm, Em. 460 nm, gain=85). HeLa cells were grown and the cellular deacetylation assays were performed and read, as above, but in full-volume 96-well microplates (Coming Costar 3595). […]

We go through two compounds from US20060276393A1, “Novel compositions for preventing and treating neurodegenerative and blood coagulation disorders” (Sirtris Pharmaceuticals, Inc., priority 2005, published 2006).

SMILES strings stand for the structures. “Also recorded” adds a separate entry of the source.

On to `CC(=O)Oc1cc(O)cc(/C=C/c2ccc(O)cc2)c1` [BML-221, 3,4′-Dihydroxy-5-acetoxy-trans-stilbene], for which, in the series on S. cerevisiae (10 μM, 2% (w/v) glucose YPD, untreated 100%), the “% change in yeast replicative lifespan relative to untreated organisms (10 μM)” value is recorded as 165%. In series [1], the “solution stability relative to resveratrol” value is on record as “strongly increased; also recorded: vast improvement in solution stability relative to resveratrol”. On recombinant human SIRT1, the “SIRT1 stimulating activity (in words)” value is on record as “diminished in in vitro SIRT1 activating ability”. In the series on C. elegans, the “% change in C. elegans lifespan relative to untreated organisms (100/500 μM)” value is greater than 100%.

With `O=C(/C=C/c1ccc(O)c(O)c1)c1ccc(O)cc1O` [butein, 3,4,2′,4′-Tetrahydroxychalcone], in the series with S. cerevisiae (10 μM), the “increase of average lifespan” value was 31% and the “maximum lifespan (in words)” value is “significantly increased maximum lifespan”. The compound also returned an Average lifespan in the series with S. cerevisiae (10 μM compound, 2% glucose medium, wild type untreated 22.9) of 35.5 generations. Further, in the series with HeLa S3 cells, the “TSA-insensitive cellular deacetylation signal” value was “no effect on the cellular signal”.
